Data on five compounds can be found in paper PMC8781304, “Arene-Ruthenium(II) Complexes with Carbothiamidopyrazoles as a Potential Alternative for Antibiotic Resistance in Human” (Molecules, 2022).

Data set [1] relates to S. aureus ATCC 29213. Briefly: Time-kill test. The class given is cell-based, Staphylococcus aureus. Particulars: 1 × MIC. How it is done:
(§1) The time-kill experiments were performed as described previously. Briefly, inocula were prepared in TSB medium (TSB; […] BTL Sp. z o.o., Łódź, Poland). All samples were incubated at 35 °C and 80 rpm for varied time intervals (2, 4, 6, 12, 18, 24, 48h). The percentage of dead cells was calculated according to the growth control by determining the number of living cells (CFU/mL) of each tube using the agar plate count method. Samples were immediately serially diluted ten-fold in 0.01 M phosphate buffered saline (PBS, Bimed Lublin S.A., Lublin, Poland) at pH 7.0 and 10 μL aliquots were spot-inoculated in duplicate onto MHA plates. Agar plates were incubated at 37 °C overnight before determining the viable count. Two independent experiments were carried out.

Data set [2] relates to S. aureus ATCC 29213. Nature of the data set: Synergy with oxacillin and vancomycin, partial checkerboard broth microdilution. In kind it is cell-based, Staphylococcus aureus. The note with it: S. aureus ATCC 29213; for FIC (Oxa) / FIC (Van): MIC antibiotic in combination/MIC antibiotic alone; for MIC Oxa in Combination: oxacillin with the complex at ½ MIC (NH4PF6 250 µg/mL); for MIC Van in Combination: vancomycin with the complex at ½ MIC (NH4PF6 250 µg/mL). Background: In broth dilution the organism is exposed to a series of concentrations in liquid medium.

In data set [3] the test system is Staphylococcus aureus ATCC 29213. Briefly: Fluorescence microscopy, Hoechst 33258 / propidium iodide viability. In kind it is cell-based. The note with it: S. aureus ATCC 29213; MIC concentration, 24 h. How it is done: (§2) Staphylococcus aureus ATCC 29213 and Staphylococcus epidermidis ATCC 12228 strains were treated with tested compounds 2a–2d and 3a–3d at a concentration 1 × MIC for 24h, while untreated cells were used as a growth control. After incubation, the cells were harvested and a suspension of 1 × 10^5 cells/mL in PBS was prepared. Following this, 1 µl of the fluorescent dyes Hoechst 33258 and propidium iodide (15 µg/mL each) (Sigma, St. Louis, MO, USA) were added. The obtained mixture was incubated in the dark at room temperature for 15–20 min. After incubation, the cell suspensions, placed on glass slides, were analyzed under an Olympus IX 70 fluorescence microscope (Shinjuku, Tokyo, Japan), using a 360–370 nm UV filter. Photos were taken at 10 × 20 magnification.

Data set [4] concerns Staphylococcus epidermidis ATCC 12228. Described as above. The class given is cell-based. Particulars: S. epidermidis ATCC 12228; MIC concentration, 24 h. How it is done: as §2
Data set [5] deals with S. epidermidis ATCC 12228. Briefly: Synergy with oxacillin and vancomycin, partial checkerboard broth microdilution. The class given is cell-based, Staphylococcus epidermidis. The note with it: S. epidermidis ATCC 12228; for FIC (Oxa) / FIC (Van): MIC antibiotic in combination/MIC antibiotic alone; for MIC Oxa in Combination: oxacillin with the complex at ½ MIC (NH4PF6 250 µg/mL); for MIC Van in Combination: vancomycin with the complex at ½ MIC (NH4PF6 250 µg/mL).

Data set [6] concerns S. epidermidis ATCC 12228. Briefly: Cell lysis (bacteriolysis, OD600). The class given is cell-based, Staphylococcus epidermidis. Particulars: 1 × MBC.
The subject of data set [7] is S. epidermidis ATCC 12228. Briefly: Time-kill test. The note with it: 1 × MIC. The class given is cell-based, Staphylococcus epidermidis. How it is done:
as §1

Data set [8] relates to Supercoiled plasmid pUC57 DNA. Also noted: method as in PMID 35540189. Particulars: studied previously; cited from earlier work.
Data set [9] relates to WM-115 melanoma cell line. Particulars: cited from earlier work.
Where [10] appears, read: read-out: IC50 (cytotoxicity), WM-115 melanoma cell line.

The term IC50 denotes the midpoint of a concentration-inhibition curve.

Like-named read-outs stand apart in the source and are kept apart here.

Consider `Cc1cc(C)n(C(N)=S)n1.Cc1ccc(C(C)C)cc1.[Cl-].[Cl][Ru+]` [Compound 2a], for which, in data set [1], the “Time-kill: bacteriostatic or bactericidal” value was “bacteriostatic”. Also, in data set [2], the “FIC (Oxa)” value is recorded as 1, the “FIC (Van)” value stood at 1, the “MIC Oxa in Combination” value is reported as 0.250 µg/mL and the “MIC Van in Combination” value was determined as 0.50 µg/mL. For the same compound, in data set [3], the “Change in bacterial viability (Hoechst 33258 / PI fluorescence)” value (“Change … (Hoechst 33258 / PI fluorescence)” below) is “Less changes in cell survival”. In addition, in [4], the “Change … (Hoechst 33258 / PI fluorescence)” value is “Less changes in cell survival”. Moreover, in data set [5], the “FIC (Oxa)” value amounted to 0.06, the “FIC (Van)” value worked out at 0.03, the “MIC Oxa in Combination” value is on record as 0.015 µg/mL and the “MIC Van in Combination” value is 0.015 µg/mL. Further, the “Cell lysis, change of OD600” value in [6] was “not found to change OD600 values”. Further, the “Time-kill: bacteriostatic or bactericidal” value in data set [7] is “bacteriostatic”.

Regarding `CCc1cc(CC)n(C(N)=S)n1.Cc1ccc(C(C)C)cc1.[Cl-].[Cl][Ru+]` [Compound 2b], the “Time-kill: bacteriostatic or bactericidal” value in [1] is reported as “bacteriostatic”. In [2], the “Correlation with Oxa and Van (synergy), in words” value (from here on “Correlation with Oxa and Van”) is “synergistic effects”; the “FIC (Oxa)” value is 0.5; the “FIC (Van)” value was found to be 0.5; the “MIC Oxa in Combination” value came to 0.125 µg/mL. Besides, the “MIC Van in Combination” value in data set [2] came to 0.25 µg/mL. The “Change … (Hoechst 33258 / PI fluorescence)” value in data set [3] is “Less changes in cell survival”. Besides, the “Change … (Hoechst 33258 / PI fluorescence)” value in data set [4] is on record as “Less changes in cell survival”. In data set [5], the “Correlation with Oxa and Van” value was “synergistic effect in all tested configurations”; the “FIC (Oxa)” value is 0.06; the “FIC (Van)” value amounted to 0.03; the “MIC Oxa in Combination” value turned out to be 0.015 µg/mL. Also, in data set [5], the “MIC Van in Combination” value was found to be 0.015 µg/mL. The “Cell lysis, change of OD600” value in data set [6] is recorded as “not found to change OD600 values”. The “Time-kill: bacteriostatic or bactericidal” value in data set [7] was “bacteriostatic”. Besides, in [8], the “Nicking of DNA Form I into Form II and III” value is “nick the DNA Form I into Form II and III”.

Regarding `Cc1ccc(C(C)C)cc1.NC(=S)n1nc(-c2ccccc2)cc1O.[Cl-].[Cl][Ru+]` [Compound 2c], the “Time-kill: bacteriostatic or bactericidal” value in [1] is reported as “bacteriostatic”. Also, in [2], the “Correlation with Oxa and Van” value is reported as “synergistic effects”; the “FIC (Oxa)” value is reported as 0.5; the “FIC (Van)” value stood at 0.5; the “MIC Oxa in Combination” value came to 0.125 µg/mL. In addition, in data set [2], the “MIC Van in Combination” value turned out to be 0.25 µg/mL. For the same compound, the “Change … (Hoechst 33258 / PI fluorescence)” value in data set [3] is “greatest changes in bacterial viability”. The “Change … (Hoechst 33258 / PI fluorescence)” value in data set [4] is given as “greatest changes in bacterial viability”. For the same compound, in data set [5], the “FIC (Oxa)” value came out at 0.25, the “FIC (Van)” value is on record as 1, the “MIC Oxa in Combination” value came out at 0.06 µg/mL and the “MIC Van in Combination” value is 0.5 µg/mL. For the same compound, the “Cell lysis, change of OD600” value in [6] is “quite moderate decrease in OD600”. Moreover, the IC50 in [9] (setting [10]) is 26.7 µM. Further, the “Time-kill: bacteriostatic or bactericidal” value in data set [7] is “bactericidal”.

Regarding `Cc1cc(O)n(C(N)=S)n1.Cc1ccc(C(C)C)cc1.[Cl-].[Cl][Ru+]` [Compound 2d], in [2], the “FIC (Oxa)” value worked out at 0.5, the “FIC (Van)” value is recorded as 1, the “MIC Oxa in Combination” value is 0.125 µg/mL and the “MIC Van in Combination” value is recorded as 0.50 µg/mL. In data set [3], the “Change … (Hoechst 33258 / PI fluorescence)” value was “no significant changes in the viability”. In addition, in data set [4], the “Change … (Hoechst 33258 / PI fluorescence)” value is on record as “no significant changes in the viability”. For the same compound, in data set [5], the “FIC (Oxa)” value was determined as 0.5, the “FIC (Van)” value is 1, the “MIC Oxa in Combination” value is recorded as 0.125 µg/mL and the “MIC Van in Combination” value was found to be 0.5 µg/mL. Also, the IC50 in data set [9] (setting [10]) was 7.9 µM. Moreover, the “Nicking of DNA Form I into Form II and III” value in [8] is “nick the DNA Form I into Form II and III”.

As for `N.N.[Cl][Pt][Cl]` [cisplatin, reference compound], the IC50 in data set [9] was 18.2 µM.
